# Key:
# [1] = Plasma stability test, human; format: in vitro ADME; settings: 37° C.
# Description: The pH of the plasma was checked and recorded. Note: a.
# The final concentration of solvent was 0.5%.
# The assay was performed in duplicate. […] The tubes were mixed by vortex for 5 minutes.
# [2] = in vitro; settings: for half-life at 5 µM: hepatocyte cytosol
# Description: (1) Compound A for test, progesterone positive control, and 100 mM stock solutions of AST-3021 inhibitor were prepared and stored in the freezer (−10° C. to −30° C.).
# 1) Negative control group: at different time points (0 and 60 min), 30 μL/well of hepatocyte cytosol suspension containing 7.5 μM of sample for test was distributed in a 96-well plate. Three replicate wells were prepared in parallel.
# 2) Positive control group: at different time points (0, 5, 15, 30, 45 and 60 min), 30 μL/well of hepatocyte cytosol suspension containing 7.5 μM of the positive control was distributed in a 96-well plate. Three replicate wells were prepared in parallel.
# 3) Normal reaction group: at different time points (0, 5, 15, 30, 45 and 60 min), 30 μL/well of hepatocyte cytosol suspension containing 7.5 μM of sample for test was distributed in a 96-well plate. Three replicate wells were prepared in parallel.
# 4) Inhibition reaction group: at different time points (0, 5, 15, 30, 45 and 60 min), 30 μL/well of hepatocyte cytosol suspension containing […] of sample for test and 4.5 μM of the inhibitor was distributed in a 96-well plate. Three replicate wells were prepared in parallel.
# 6) 0 min samples: after 150 μL/well of acetonitrile containing the internal standard was added, then 15 μL/well of pre-heated NADPH working solution was added to the samples of normal reaction group, inhibition reaction group and positive control group, and 15 μL/well of pre-heated potassium phosphate buffer was added to the samples of negative control group.
# 7) Other samples (5, 15, 30, 45 and 60 min): for normal reaction group, inhibition reaction group and positive control group, 15 μL/well of pre-heated NADPH working solution was added to start the reaction; for negative control group, 15 μL/well of pre-heated potassium phosphate buffer was added. The reaction plates were then continued to incubate in a 37° C. water bath and the reactions were stopped by the addition of 150 μL/well of stop solution at the corresponding time points (5, 15, 30, 45 and 60 min).
# The concentration of analyte in each sample was expressed as a peak area ratio (peak area analyte/peak areainternal standard), then the peak area ratio at 0 min was used as a reference to calculate the % Remaining at each time point of the incubation, and the ln logarithmic value of the % Remaining was linearly fitted to the incubation time and the half-life was calculated according to the following formula.
# In the absence of AST-3021, 5 μM of progesterone was co-incubated with 2 mM of NADPH and 1 mg/mL of hepatocyte cytosol for 0-60 min as a positive control.
smiles,measurement,setting,value
O=[N+]([O-])c1ccc(C(OP(=O)(N2CC2)N2CC2)C(F)(F)F)cc1Oc1ccc(-c2ccc(F)cc2)c(F)c1 (racemic) [Compound A],Percentage remaining after 2 hours in plasma,"[1]; Human plasma, 5 μM",60.06%
same,remained in plasma after 2 hours,[1]; human plasma,60.06%
same,half-life at 5 µM,"[2]; CD-1, mouse, Metabolic parameter t1/2, mouse, 2 mM NADPH, no AST-3021 (normal reaction / positive control group), 5 μM",8.52 h
same,half-life at 5 µM,"[2]; CD-1, mouse, Metabolic parameter t1/2, mouse, negative control group (no NADPH, no AST-3021), 5 μM",3.72 h
same,half-life at 5 µM,"[2]; CD-1, mouse, half-life, mouse, with NADPH and AST-3021",2.34 h
same,half-life at 5 µM,"[2]; CD-1, mouse, half-life, mouse, with NADPH, no AST-3021",8.52 h
same,half-life at 5 µM,"[2]; CD-1, mouse, with AST-3021 (AKR1C3 inhibitor), 3 μM, Metabolic parameter t1/2, mouse, 2 mM NADPH + 3 μM AST-3021 (inhibition reaction group), 5 μM",2.81 h
same,half-life at 5 µM,"[2]; SD, rat, Metabolic parameter t1/2, rat, 2 mM NADPH, no AST-3021 (normal reaction / positive control group), 5 μM",2.18 h
same,half-life at 5 µM,"[2]; SD, rat, Metabolic parameter t1/2, rat, negative control group (no NADPH, no AST-3021), 5 μM",1.83 h
same,half-life at 5 µM,"[2]; SD, rat, with AST-3021 (AKR1C3 inhibitor), 3 μM, Metabolic parameter t1/2, rat, 2 mM NADPH + 3 μM AST-3021 (inhibition reaction group), 5 μM",1.69 h
same,half-life at 5 µM,"[2]; Sprague-Dawley (SD), rat, half-life, with NADPH and AST-3021",1.69 h
same,half-life at 5 µM,"[2]; Sprague-Dawley (SD), rat, half-life, with NADPH, no AST-3021",2.18 h
same,half-life at 5 µM,"[2]; cynomolgus (printed as 'machins'), monkey, Metabolic parameter t1/2, monkey, 2 mM NADPH, no AST-3021 (normal reaction / positive control group), 5 μM",2.53 h
same,half-life at 5 µM,"[2]; cynomolgus (printed as 'machins'), monkey, Metabolic parameter t1/2, monkey, negative control group (no NADPH, no AST-3021), 5 μM",2.87 h
same,average % Remaining,"[2]; human, 60 min, no NADPH, no AST-3021",38.96%
same,average % Remaining,"[2]; human, 60 min, with NADPH, no AST-3021",43.34%
same,half-life at 5 µM,"[2]; human, Metabolic parameter t1/2, human, 2 mM NADPH, no AST-3021 (normal reaction / positive control group), 5 μM",0.831 h
same,half-life at 5 µM,"[2]; human, Metabolic parameter t1/2, human, negative control group (no NADPH, no AST-3021), 5 μM",0.735 h
same,half-life at 5 µM,"[2]; human, half-life, with NADPH and AST-3021",1.08 h
same,half-life at 5 µM,"[2]; human, half-life, with NADPH, no AST-3021",0.831 h
same,half-life at 5 µM,"[2]; human, with AST-3021 (AKR1C3 inhibitor), 3 µM, Metabolic parameter t1/2, human, 2 mM NADPH + 3 μM AST-3021 (inhibition reaction group), 5 μM",1.08 h
same,% Remaining,"[2]; human, with NADPH and AST-3021",53.65%
same,Metabolic parameter k,"[2]; human, 2 mM NADPH + 3 μM AST-3021 (inhibition reaction group), 5 μM",0.0107
same,average % Remaining,"[2]; human, 2 mM NADPH + 3 μM AST-3021 (inhibition reaction group), 5 μM, 0 min",100.00%
same,average % Remaining,"[2]; human, 2 mM NADPH + 3 μM AST-3021 (inhibition reaction group), 5 μM, 5 min",83.74%
same,average % Remaining,"[2]; human, 2 mM NADPH + 3 μM AST-3021 (inhibition reaction group), 5 μM, 15 min",78.58%
same,average % Remaining,"[2]; human, 2 mM NADPH + 3 μM AST-3021 (inhibition reaction group), 5 μM, 30 min",67.01%
same,average % Remaining,"[2]; human, 2 mM NADPH + 3 μM AST-3021 (inhibition reaction group), 5 μM, 45 min",66.39%
same,average % Remaining,"[2]; human, 2 mM NADPH + 3 μM AST-3021 (inhibition reaction group), 5 μM, 60 min",53.65%
same,Metabolic parameter k,"[2]; human, 2 mM NADPH, no AST-3021 (normal reaction / positive control group), 5 μM",0.0139
same,average % Remaining,"[2]; human, 2 mM NADPH, no AST-3021 (normal reaction / positive control group), 5 μM, 0 min",100.00%
same,average % Remaining,"[2]; human, 2 mM NADPH, no AST-3021 (normal reaction / positive control group), 5 μM, 5 min",88.27%
same,average % Remaining,"[2]; human, 2 mM NADPH, no AST-3021 (normal reaction / positive control group), 5 μM, 15 min",79.04%
same,average % Remaining,"[2]; human, 2 mM NADPH, no AST-3021 (normal reaction / positive control group), 5 μM, 30 min",70.02%
same,average % Remaining,"[2]; human, 2 mM NADPH, no AST-3021 (normal reaction / positive control group), 5 μM, 45 min",52.35%
same,average % Remaining,"[2]; human, 2 mM NADPH, no AST-3021 (normal reaction / positive control group), 5 μM, 60 min",43.34%
same,Metabolic parameter k,"[2]; human, negative control group (no NADPH, no AST-3021), 5 μM",0.0157
same,average % Remaining,"[2]; human, negative control group (no NADPH, no AST-3021), 5 μM, 0 min",100.00%
same,average % Remaining,"[2]; human, negative control group (no NADPH, no AST-3021), 5 μM, 60 min",38.96%
same,half-life at 5 µM,"[2]; machin (cynomolgus), monkey, with AST-3021 (AKR1C3 inhibitor), 3 µM, Metabolic parameter t1/2, monkey, 2 mM NADPH + 3 μM AST-3021 (inhibition reaction group), 5 μM",2.59 h
same,half-life at 5 µM,"[2]; machins, monkey, half-life, with NADPH and AST-3021",2.59 h
same,half-life at 5 µM,"[2]; machins, monkey, half-life, with NADPH, no AST-3021",2.53 h
same,average % Remaining,"[2]; monkey, 60 min, no NADPH, no AST-3021",78.57%
same,average % Remaining,"[2]; monkey, 60 min, with NADPH, no AST-3021",73.28%
same,% Remaining,"[2]; monkey, with NADPH and AST-3021",69.52%
same,Metabolic parameter k,"[2]; monkey, 2 mM NADPH + 3 μM AST-3021 (inhibition reaction group), 5 μM",0.0045
same,average % Remaining,"[2]; monkey, 2 mM NADPH + 3 μM AST-3021 (inhibition reaction group), 5 μM, 0 min",100.00%
same,average % Remaining,"[2]; monkey, 2 mM NADPH + 3 μM AST-3021 (inhibition reaction group), 5 μM, 5 min",96.83%
same,average % Remaining,"[2]; monkey, 2 mM NADPH + 3 μM AST-3021 (inhibition reaction group), 5 μM, 15 min",101.19%
same,average % Remaining,"[2]; monkey, 2 mM NADPH + 3 μM AST-3021 (inhibition reaction group), 5 μM, 30 min",90.97%
same,average % Remaining,"[2]; monkey, 2 mM NADPH + 3 μM AST-3021 (inhibition reaction group), 5 μM, 45 min",88.36%

# From patent US20260159536A1, “AKR1C3-ACTIVATED DNA ALKYLATING AGENT, AND MEDICAL APPLICATION THEREOF” (ASCENTAWITS PHARMACEUTICALS, LTD., priority 2021, published 2026)
